For test [1], the target named is JAK2 JH1 catalytic (human) (UniProt O60674). Nature of the test: KINOMEscan competition binding. Conditions: compound 10.0 µM.
The target of a further test is AURKB (human) (UniProt Q96GD4). In words: SelectScreen, TR FRET.
The target in another test is AURKC (human) (UniProt Q9UQB9). In words: SelectScreen, TR FRET.
Another test deals with ANKK1 (human) (UniProt Q8NFD2). In words: KINOMEscan competition binding. The note with it: compound 10.0 µM.
The target in the next test is CDC42BPG (human) (UniProt Q6DT37). Nature of the test: KINOMEscan competition binding. The note with it: compound 10.0 µM.
For another test, the target named is CDK17 (human) (UniProt Q00537). Nature of the test: KINOMEscan competition binding. The note with it: compound 10.0 µM.
For the next test, the target named is CHEK1 (human) (UniProt O14757). In words: KINOMEscan competition binding. The note with it: compound 10.0 µM.
Another test addresses DYRK1A (human) (UniProt Q13627). In words: KINOMEscan competition binding.
The next test has as its target DYRK2 (human) (UniProt Q92630). In words: KINOMEscan competition binding.
Another test concerns the target FGFR3 (human) (UniProt P22607). In words: KINOMEscan competition binding. Conditions: compound 10.0 µM.
The target of test [2] is HIPK2 (human) (UniProt Q9H2X6). In words: KINOMEscan competition binding.
For another test, the target named is MERTK (human) (UniProt Q12866). In words: KINOMEscan competition binding. Conditions: compound 10.0 µM.
A further test deals with PIK3CB (human) (UniProt P42338). In words: KINOMEscan competition binding. The note with it: compound 10.0 µM.
Another test has as its target PLK1 (human) (UniProt P53350). Nature of the test: KINOMEscan competition binding. Conditions: compound 10.0 µM.
The next test deals with STK4 (human) (UniProt Q13043). In words: KINOMEscan competition binding. Conditions: compound 10.0 µM.
The target in a further test is TIE1 (human) (UniProt P35590). Nature of the test: KINOMEscan competition binding. The note with it: compound 10.0 µM.
Another test concerns the target TNNI3K (human) (UniProt Q59H18). Nature of the test: KINOMEscan competition binding. The note with it: compound 10.0 µM.
In the next test the target is ZAP70 (human) (UniProt P43403). In words: KINOMEscan competition binding. The note with it: compound 10.0 µM.
The target of a further test is HIPK1 (human) (UniProt Q86Z02). In words: SelectScreen, TR FRET.
The target of test [3] is HIPK2 (human) (UniProt Q9H2X6). Nature of the test: SelectScreen, TR FRET.

Sequence of HIPK2 (human) (Q9H2X6 whole entry, looked up): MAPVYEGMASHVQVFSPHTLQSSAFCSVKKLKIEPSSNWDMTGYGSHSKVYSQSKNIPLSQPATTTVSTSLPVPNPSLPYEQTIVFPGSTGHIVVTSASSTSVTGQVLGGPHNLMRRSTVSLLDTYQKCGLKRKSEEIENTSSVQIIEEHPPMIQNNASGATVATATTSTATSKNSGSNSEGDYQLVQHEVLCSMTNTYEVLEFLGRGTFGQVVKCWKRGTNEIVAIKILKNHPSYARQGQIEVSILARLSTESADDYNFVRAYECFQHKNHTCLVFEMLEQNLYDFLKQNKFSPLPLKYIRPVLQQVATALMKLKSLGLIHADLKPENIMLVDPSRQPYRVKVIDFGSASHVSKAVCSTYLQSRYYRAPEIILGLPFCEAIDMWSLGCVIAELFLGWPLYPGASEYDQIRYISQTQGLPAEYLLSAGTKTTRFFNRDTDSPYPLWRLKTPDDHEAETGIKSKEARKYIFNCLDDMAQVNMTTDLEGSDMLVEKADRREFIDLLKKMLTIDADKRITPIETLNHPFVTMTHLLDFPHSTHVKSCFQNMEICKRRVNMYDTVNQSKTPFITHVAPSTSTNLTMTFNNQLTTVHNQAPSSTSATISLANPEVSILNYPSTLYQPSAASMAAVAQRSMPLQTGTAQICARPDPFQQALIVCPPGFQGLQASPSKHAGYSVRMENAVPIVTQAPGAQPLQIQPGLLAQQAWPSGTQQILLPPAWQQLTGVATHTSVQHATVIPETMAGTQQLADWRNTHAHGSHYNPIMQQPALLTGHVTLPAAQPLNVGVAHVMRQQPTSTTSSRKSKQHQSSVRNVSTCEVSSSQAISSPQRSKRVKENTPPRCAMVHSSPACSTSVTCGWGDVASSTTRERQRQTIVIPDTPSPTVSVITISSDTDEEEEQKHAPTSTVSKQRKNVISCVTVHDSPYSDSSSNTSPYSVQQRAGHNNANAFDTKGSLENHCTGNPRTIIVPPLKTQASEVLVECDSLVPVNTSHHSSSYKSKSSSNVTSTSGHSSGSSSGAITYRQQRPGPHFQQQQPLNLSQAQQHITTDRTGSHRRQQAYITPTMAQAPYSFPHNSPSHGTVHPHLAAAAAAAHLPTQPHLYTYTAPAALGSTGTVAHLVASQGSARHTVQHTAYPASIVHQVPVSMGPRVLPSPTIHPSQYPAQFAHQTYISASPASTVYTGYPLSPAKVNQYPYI
Sequence of JAK2 JH1 catalytic (human) (O60674 whole entry, looked up): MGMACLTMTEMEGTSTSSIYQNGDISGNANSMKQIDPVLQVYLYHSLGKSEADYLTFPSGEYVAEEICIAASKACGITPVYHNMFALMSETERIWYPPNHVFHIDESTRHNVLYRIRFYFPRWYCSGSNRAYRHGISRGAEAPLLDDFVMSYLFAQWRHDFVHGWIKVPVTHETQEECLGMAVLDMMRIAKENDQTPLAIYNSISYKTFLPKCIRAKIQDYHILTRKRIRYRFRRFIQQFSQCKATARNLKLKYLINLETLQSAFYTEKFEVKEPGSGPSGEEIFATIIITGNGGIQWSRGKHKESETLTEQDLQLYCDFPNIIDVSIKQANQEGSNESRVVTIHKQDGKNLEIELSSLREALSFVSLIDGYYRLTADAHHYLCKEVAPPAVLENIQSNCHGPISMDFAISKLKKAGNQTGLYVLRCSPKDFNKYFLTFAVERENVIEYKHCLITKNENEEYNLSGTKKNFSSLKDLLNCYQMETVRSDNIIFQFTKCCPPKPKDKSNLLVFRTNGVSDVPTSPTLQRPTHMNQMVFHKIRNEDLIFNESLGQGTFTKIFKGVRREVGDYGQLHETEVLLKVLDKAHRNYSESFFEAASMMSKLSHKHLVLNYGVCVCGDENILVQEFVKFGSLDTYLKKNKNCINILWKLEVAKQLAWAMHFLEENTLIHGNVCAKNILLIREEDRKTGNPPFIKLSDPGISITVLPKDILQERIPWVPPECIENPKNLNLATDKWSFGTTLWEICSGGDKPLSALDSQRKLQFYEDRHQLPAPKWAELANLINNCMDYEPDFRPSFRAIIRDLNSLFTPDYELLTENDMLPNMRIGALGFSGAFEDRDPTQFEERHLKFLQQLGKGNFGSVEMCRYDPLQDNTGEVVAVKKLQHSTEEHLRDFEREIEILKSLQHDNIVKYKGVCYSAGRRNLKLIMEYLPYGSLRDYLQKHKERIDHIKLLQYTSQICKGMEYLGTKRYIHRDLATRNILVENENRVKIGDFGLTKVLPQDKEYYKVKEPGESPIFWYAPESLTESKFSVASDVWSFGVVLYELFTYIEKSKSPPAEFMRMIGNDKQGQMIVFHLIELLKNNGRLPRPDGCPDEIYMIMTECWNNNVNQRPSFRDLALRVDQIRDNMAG
Sequence of HIPK1 (human) (Q86Z02 whole entry, looked up): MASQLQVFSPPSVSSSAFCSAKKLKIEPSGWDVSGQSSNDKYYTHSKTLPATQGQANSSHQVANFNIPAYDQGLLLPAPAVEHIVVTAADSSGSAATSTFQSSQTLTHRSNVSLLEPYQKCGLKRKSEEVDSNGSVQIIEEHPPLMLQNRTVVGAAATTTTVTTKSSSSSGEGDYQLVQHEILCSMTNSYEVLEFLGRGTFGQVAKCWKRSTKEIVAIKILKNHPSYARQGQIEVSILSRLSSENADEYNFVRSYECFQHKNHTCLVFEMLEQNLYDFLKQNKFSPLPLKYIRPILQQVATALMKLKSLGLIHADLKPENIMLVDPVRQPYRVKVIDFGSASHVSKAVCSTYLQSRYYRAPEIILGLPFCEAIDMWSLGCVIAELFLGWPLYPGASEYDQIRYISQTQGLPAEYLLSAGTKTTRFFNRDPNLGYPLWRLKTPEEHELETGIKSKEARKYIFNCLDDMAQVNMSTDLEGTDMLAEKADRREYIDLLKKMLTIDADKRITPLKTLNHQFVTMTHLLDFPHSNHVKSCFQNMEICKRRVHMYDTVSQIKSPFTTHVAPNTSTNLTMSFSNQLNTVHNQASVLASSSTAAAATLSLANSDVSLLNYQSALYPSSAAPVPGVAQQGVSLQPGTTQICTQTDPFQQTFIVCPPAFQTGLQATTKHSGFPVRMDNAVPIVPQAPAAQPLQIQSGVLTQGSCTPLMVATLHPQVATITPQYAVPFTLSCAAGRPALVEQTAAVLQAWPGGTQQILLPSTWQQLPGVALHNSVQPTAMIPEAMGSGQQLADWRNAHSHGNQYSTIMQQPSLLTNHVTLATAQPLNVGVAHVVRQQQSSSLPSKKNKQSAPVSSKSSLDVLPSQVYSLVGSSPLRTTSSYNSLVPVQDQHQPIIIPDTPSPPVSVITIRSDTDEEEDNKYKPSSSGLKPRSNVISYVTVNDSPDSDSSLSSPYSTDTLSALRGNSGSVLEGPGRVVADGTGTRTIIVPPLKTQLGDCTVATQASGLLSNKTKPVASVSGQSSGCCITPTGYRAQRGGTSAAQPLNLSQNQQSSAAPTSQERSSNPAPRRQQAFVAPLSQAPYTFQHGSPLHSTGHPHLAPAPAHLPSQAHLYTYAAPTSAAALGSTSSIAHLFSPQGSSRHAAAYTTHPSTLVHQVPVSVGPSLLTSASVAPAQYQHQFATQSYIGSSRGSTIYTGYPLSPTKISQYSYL
Sequence of PLK1 (human) (P53350 whole entry, looked up): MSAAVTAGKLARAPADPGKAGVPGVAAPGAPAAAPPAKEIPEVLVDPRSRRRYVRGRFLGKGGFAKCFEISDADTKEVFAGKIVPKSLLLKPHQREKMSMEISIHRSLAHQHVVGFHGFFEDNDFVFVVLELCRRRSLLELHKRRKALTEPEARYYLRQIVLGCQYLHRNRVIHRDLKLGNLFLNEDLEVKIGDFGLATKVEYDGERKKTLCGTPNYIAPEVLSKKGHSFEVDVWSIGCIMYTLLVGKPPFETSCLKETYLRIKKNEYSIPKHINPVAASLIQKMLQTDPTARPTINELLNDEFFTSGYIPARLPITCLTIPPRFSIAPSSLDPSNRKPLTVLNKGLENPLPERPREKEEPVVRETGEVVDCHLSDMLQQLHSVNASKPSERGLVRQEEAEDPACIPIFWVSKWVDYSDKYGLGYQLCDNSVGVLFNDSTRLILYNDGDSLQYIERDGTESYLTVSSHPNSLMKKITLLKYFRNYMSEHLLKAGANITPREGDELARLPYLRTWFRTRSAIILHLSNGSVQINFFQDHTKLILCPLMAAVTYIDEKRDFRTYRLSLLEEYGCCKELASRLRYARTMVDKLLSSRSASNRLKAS
Sequence of ZAP70 (human) (P43403 whole entry, looked up): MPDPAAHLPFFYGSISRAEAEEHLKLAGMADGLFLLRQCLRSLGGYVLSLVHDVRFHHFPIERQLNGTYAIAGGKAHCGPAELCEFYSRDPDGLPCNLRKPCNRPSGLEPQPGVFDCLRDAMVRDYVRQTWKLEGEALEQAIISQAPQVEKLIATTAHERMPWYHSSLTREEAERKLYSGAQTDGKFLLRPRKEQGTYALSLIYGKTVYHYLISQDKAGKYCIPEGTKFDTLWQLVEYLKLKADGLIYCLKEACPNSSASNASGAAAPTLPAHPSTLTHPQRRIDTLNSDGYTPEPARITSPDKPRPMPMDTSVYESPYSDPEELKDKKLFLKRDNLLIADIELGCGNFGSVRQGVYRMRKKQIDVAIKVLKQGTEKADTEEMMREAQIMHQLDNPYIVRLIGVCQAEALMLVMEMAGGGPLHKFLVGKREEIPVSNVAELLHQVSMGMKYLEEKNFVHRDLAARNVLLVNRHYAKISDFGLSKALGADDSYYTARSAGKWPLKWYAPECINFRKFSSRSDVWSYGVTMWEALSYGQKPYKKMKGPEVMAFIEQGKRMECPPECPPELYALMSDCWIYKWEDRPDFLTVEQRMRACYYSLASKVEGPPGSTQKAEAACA
Sequence of AURKC (human) (Q9UQB9 whole entry, looked up): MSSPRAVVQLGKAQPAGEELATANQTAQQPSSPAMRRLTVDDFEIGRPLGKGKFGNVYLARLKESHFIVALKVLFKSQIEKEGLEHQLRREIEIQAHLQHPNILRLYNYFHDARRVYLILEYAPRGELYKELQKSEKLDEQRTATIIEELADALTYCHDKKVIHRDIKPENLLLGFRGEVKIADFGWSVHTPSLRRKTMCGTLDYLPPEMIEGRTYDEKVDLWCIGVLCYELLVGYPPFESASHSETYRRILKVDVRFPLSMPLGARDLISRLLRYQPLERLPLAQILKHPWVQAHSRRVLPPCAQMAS

Take `N=C1NC(=O)/C(=C/c2ccc(-c3cncc4ccccc34)o2)S1`: the kinase still bound, per cent of control in [1] was 29%. Also, the IC50 at AURKB (human) was found to be 29 nM; on AURKC (human), 154 nM.

For `O=C1NC(=O)/C(=C/c2c[nH]c(=O)c(-c3ccc(N4CCNCC4)nc3)c2)S1`, the kinase still bound, per cent of control on ANKK1 (human) came out at 70%; on CDC42BPG (human), 88%; on CDK17 (human) it was 85%; on CHEK1 (human), 2.4%; on FGFR3 (human), 84%; in test [1], 14%. For the same molecule, the kinase still bound, per cent of control at MERTK (human) was 83%; on PIK3CB (human) it was 4.8%; at PLK1 (human), 46%; at STK4 (human), 96%; on TIE1 (human) it was 64%; at TNNI3K (human) it was 96%. Besides, the kinase still bound, per cent of control at ZAP70 (human) came out at 61%. In addition, the values for the Kd at DYRK1A (human), on DYRK2 (human) and at HIPK2 (human) [2] were 8.8 nM, 250 nM and 9.5 nM, respectively. Moreover, the half-inhibitory concentration (IC50) at HIPK1 (human) is 136 nM; at HIPK2 (human) [3], 74 nM.

Source of the values: the kinase profiling compilation of Christmann-Franck et al. (2016).
